Test results published in US20210046137A1, “ANTIMICROBIAL PHOTOSENSITIZER COMPOSITION AND METHOD” (ToeFX Inc., priority 2018, published 2021).

Experiments:
[1] = tested on: Trichophyton rubrum; assay: Methylene blue phototherapy of infected nail pieces, ex vivo; format: cell-based; design: key to Fungal growth on nail pieces after treatment: “G” indicates growth; “N” indicates no growth
Protocol: Sterilized nail pieces were placed on fresh T.rubrum lawn to be infected for at least 10 days with dorsal side upwards. […] Control was carrier solution with no Methylene blue. […] The nails were exposed to red light (640 nm, 9 W—3 LED lights, 3 W each) for 30 min. Amount of viable fungal colonies of Trichophyton rubrum after treatment relative to control was observed using microscope and once visual continued to be monitored with the naked eye. Results are shown in Table 2, where “G” indicates growth and “N” indicates no growth. […] After 5 days mycelium growth was found for the 0.0625% and 0.03125% treatments. After 6 days of the treatment mycelium was found for the 0.125% treatments. […] Meaning that there is a need for a secondary treatment or alternative treatment in order to obtain prolonged inhibition of re-growth.

[2] = tested on: C. albicans; conditions: low curcumin concentrations, planktonic and biofilm form; cited from earlier work

CN(C)c1ccc2nc3ccc(=[N+](C)C)cc-3sc2c1 [MB, Methylene blue]
12 days: Days after treatment at which growth was found ([1]; 0.25% MB, red light 640 nm 30 min)
6 days: Days after treatment at which mycelium growth was found ([1]; 0.125% MB, red light 640 nm 30 min)
5 days: Days after treatment at which mycelium growth was found ([1]; 0.03125% MB, red light 640 nm 30 min) | Days after treatment at which mycelium growth was found ([1]; 0.0625% MB, red light 640 nm 30 min)
G: Fungal growth on nail pieces after treatment ([1]; 0.03% MB in carrier, red light 640 nm 30 min, Day 6) | Fungal growth on nail pieces after treatment ([1]; 0.03% MB in carrier, red light 640 nm 30 min, Day 7) | Fungal growth on nail pieces after treatment ([1]; 0.03% MB in carrier, red light 640 nm 30 min, Day 8) | Fungal growth on nail pieces after treatment ([1]; 0.03% MB in carrier, red light 640 nm 30 min, Day 9) | Fungal growth on nail pieces after treatment ([1]; 0.03% MB in carrier, red light 640 nm 30 min, Day 10) | Fungal growth on nail pieces after treatment ([1]; 0.03% MB in carrier, red light 640 nm 30 min, Day 12) | Fungal growth on nail pieces after treatment ([1]; 0.03% MB in carrier, red light 640 nm 30 min, Day 13) | Fungal growth on nail pieces after treatment ([1]; 0.0625% MB in carrier, red light 640 nm 30 min, Day 6) | Fungal growth on nail pieces after treatment ([1]; 0.0625% MB in carrier, red light 640 nm 30 min, Day 7) | Fungal growth on nail pieces after treatment ([1]; 0.0625% MB in carrier, red light 640 nm 30 min, Day 8) | Fungal growth on nail pieces after treatment ([1]; 0.0625% MB in carrier, red light 640 nm 30 min, Day 9) | Fungal growth on nail pieces after treatment ([1]; 0.0625% MB in carrier, red light 640 nm 30 min, Day 10) | Fungal growth on nail pieces after treatment ([1]; 0.0625% MB in carrier, red light 640 nm 30 min, Day 12) | Fungal growth on nail pieces after treatment ([1]; 0.0625% MB in carrier, red light 640 nm 30 min, Day 13) | Fungal growth on nail pieces after treatment ([1]; 0.125% MB in carrier, red light 640 nm 30 min, Day 7) | Fungal growth on nail pieces after treatment ([1]; 0.125% MB in carrier, red light 640 nm 30 min, Day 8) | Fungal growth on nail pieces after treatment ([1]; 0.125% MB in carrier, red light 640 nm 30 min, Day 9) | Fungal growth on nail pieces after treatment ([1]; 0.125% MB in carrier, red light 640 nm 30 min, Day 10) | Fungal growth on nail pieces after treatment ([1]; 0.125% MB in carrier, red light 640 nm 30 min, Day 12) | Fungal growth on nail pieces after treatment ([1]; 0.125% MB in carrier, red light 640 nm 30 min, Day 13) | Fungal growth on nail pieces after treatment ([1]; 0.25% MB in carrier, red light 640 nm 30 min, Day 13)
did not kill nor inhibit: Effect on fungus growth ([1]; MB alone (without light), separate experiment)
N: Fungal growth on nail pieces after treatment ([1]; 0.03% MB in carrier, red light 640 nm 30 min, Day 3) | Fungal growth on nail pieces after treatment ([1]; 0.03% MB in carrier, red light 640 nm 30 min, Day 4) | Fungal growth on nail pieces after treatment ([1]; 0.0625% MB in carrier, red light 640 nm 30 min, Day 3) | Fungal growth on nail pieces after treatment ([1]; 0.0625% MB in carrier, red light 640 nm 30 min, Day 4) | Fungal growth on nail pieces after treatment ([1]; 0.125% MB in carrier, red light 640 nm 30 min, Day 3) | Fungal growth on nail pieces after treatment ([1]; 0.125% MB in carrier, red light 640 nm 30 min, Day 4) | Fungal growth on nail pieces after treatment ([1]; 0.125% MB in carrier, red light 640 nm 30 min, Day 6) | Fungal growth on nail pieces after treatment ([1]; 0.25% MB in carrier, red light 640 nm 30 min, Day 3) | Fungal growth on nail pieces after treatment ([1]; 0.25% MB in carrier, red light 640 nm 30 min, Day 4) | Fungal growth on nail pieces after treatment ([1]; 0.25% MB in carrier, red light 640 nm 30 min, Day 6) | Fungal growth on nail pieces after treatment ([1]; 0.25% MB in carrier, red light 640 nm 30 min, Day 7) | Fungal growth on nail pieces after treatment ([1]; 0.25% MB in carrier, red light 640 nm 30 min, Day 8) | Fungal growth on nail pieces after treatment ([1]; 0.25% MB in carrier, red light 640 nm 30 min, Day 9) | Fungal growth on nail pieces after treatment ([1]; 0.25% MB in carrier, red light 640 nm 30 min, Day 10) | Fungal growth on nail pieces after treatment ([1]; 0.25% MB in carrier, red light 640 nm 30 min, Day 12)

COc1cc(/C=C/C(=O)CC(=O)/C=C/c2ccc(O)c(OC)c2)ccc1O [curcumin, diferuloylmethane]
highly effective: photoinactivating C. albicans [2]
